According to ChEMBL document CHEMBL5696442, “Discovery of type II inhibitors of TGFβ-activated kinase 1 (TAK1) and mitogen-activated protein kinase kinase kinase kinase 2 (MAP4K2)” (J Med Chem, 2015):
Calls of active or inactive are those of the source. No cut-off for these calls is given here.

Columns and labels:
[1] = molecular target: Calcium/calmodulin-dependent protein kinase type IV (Homo sapiens) (UniProt Q16566); assay: Inhibition of CAMK4 (unknown origin) at 1 uM by Ambit Kinomescan binding assay relative to control; values are per cent of control
[2] = molecular target: Serine/threonine-protein kinase 38 (Homo sapiens) (UniProt Q15208); assay: Inhibition of NDR1 Lys2 labeling site in human A-375 cells at 5 uM by KiNativ Profiling analysis relative to control; assay type: cell-based
BaF3 = assay: Antiproliferative activity against parental mouse BaF3 cells assessed reduction in cell viability measured after 48 hrs by Celltiter-glo assay; assay type: functional, cell-based; conditions: BaF3, 48 h
[3] = molecular target: Mitogen-activated protein kinase kinase kinase 13 (Homo sapiens) (UniProt O43283); assay: Inhibition of LZK (unknown origin) at 1 uM by Ambit Kinomescan binding assay relative to control
[4] = molecular target: Cyclin-dependent kinase-like 2 (Homo sapiens) (UniProt Q92772); assay: Inhibition of CDKL2 (unknown origin) at 1 uM by Ambit Kinomescan binding assay relative to control; values are per cent of control
[5] = molecular target: Tyrosine-protein kinase ABL (Homo sapiens) (UniProt P00519+P42684); assay: Inhibition of ABL1/2 ACT labeling site in human Huh-7 cells at 1 uM by KiNativ Profiling analysis relative to control; assay type: cell-based
[6] = molecular target: Dual specificity protein kinase CLK4 (Homo sapiens) (UniProt Q9HAZ1); assay: Inhibition of CLK4 (unknown origin) at 10 uM by Ambit Kinomescan binding assay
[7] = molecular target: T1, Kinase suppressor of Ras 1 (Homo sapiens) (UniProt Q8IVT5); assay: Inhibition of KSR1 ACT labeling site harbouring SKNVFYDNGKVVITDFGLFGISGVVR in human A-375 cells at 0.05 uM by KiNativ Profiling analysis relative to control; assay type: cell-based
T1 sequence (whole entry): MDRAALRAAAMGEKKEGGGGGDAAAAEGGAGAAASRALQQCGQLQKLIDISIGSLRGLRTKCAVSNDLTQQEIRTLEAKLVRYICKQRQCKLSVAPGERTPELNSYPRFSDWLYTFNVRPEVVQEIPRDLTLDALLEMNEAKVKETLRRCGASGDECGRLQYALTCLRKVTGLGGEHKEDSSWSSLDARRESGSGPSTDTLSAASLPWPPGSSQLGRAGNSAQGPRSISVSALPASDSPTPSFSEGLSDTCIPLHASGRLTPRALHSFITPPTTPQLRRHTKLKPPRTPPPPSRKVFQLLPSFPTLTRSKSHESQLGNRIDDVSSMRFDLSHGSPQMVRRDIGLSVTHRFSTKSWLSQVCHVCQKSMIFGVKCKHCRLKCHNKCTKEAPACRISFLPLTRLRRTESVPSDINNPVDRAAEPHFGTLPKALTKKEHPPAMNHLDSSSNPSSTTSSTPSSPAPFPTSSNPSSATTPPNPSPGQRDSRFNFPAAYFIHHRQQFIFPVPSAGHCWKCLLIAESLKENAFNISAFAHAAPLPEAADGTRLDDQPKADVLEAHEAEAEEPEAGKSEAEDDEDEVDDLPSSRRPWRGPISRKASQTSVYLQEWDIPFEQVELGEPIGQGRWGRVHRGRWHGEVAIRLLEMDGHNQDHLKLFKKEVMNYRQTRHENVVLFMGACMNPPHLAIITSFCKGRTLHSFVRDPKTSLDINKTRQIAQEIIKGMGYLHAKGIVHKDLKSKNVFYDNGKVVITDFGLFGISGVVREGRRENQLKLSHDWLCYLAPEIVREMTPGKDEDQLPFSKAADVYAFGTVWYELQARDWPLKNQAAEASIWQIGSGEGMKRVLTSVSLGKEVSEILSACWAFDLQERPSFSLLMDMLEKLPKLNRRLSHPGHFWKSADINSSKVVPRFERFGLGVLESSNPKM

[8] = molecular target: AMPK alpha1/alpha2 (Homo sapiens) (UniProt P54646+Q13131); assay: Inhibition of AMPK alpha 1/2 K1 labeling site in human Huh-7 cells at 1 uM by KiNativ Profiling analysis relative to control; assay type: cell-based
[9] = molecular target: Serine/threonine-protein kinase pim-1 (Homo sapiens) (UniProt P11309); assay: Inhibition of PIM1 (unknown origin) at 10 uM by Ambit Kinomescan binding assay
[10] = molecular target: T2, Mitogen-activated protein kinase kinase kinase 7 (Homo sapiens) (UniProt O43318); assay: Inhibition of TAK1 Lys2 labeling site harbouring DLKPPNLLLVAGGTVLK in human Huh-7 cells at 1 uM by KiNativ Profiling analysis relative to control; assay type: cell-based
T2 sequence (whole entry): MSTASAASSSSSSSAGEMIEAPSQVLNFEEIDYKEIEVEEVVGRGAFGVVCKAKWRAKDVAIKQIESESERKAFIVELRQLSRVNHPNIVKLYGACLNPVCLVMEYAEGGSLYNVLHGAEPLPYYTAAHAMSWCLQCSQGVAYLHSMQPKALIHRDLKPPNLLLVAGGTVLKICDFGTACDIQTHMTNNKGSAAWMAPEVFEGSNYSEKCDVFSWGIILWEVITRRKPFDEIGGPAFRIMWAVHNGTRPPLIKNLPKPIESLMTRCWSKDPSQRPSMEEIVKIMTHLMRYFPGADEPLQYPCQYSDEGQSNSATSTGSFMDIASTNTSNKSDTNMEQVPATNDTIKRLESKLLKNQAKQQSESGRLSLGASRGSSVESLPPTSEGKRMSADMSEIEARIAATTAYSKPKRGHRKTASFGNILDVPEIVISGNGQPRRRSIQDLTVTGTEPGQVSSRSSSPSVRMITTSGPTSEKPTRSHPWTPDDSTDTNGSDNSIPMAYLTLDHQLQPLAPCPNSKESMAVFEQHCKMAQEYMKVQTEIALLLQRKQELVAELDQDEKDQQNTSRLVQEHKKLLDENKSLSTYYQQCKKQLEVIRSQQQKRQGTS

[11] = molecular target: Ribosomal protein S6 kinase beta-2 (Homo sapiens) (UniProt Q9UBS0); assay: Inhibition of p70S6Kb ATP labeling site in human Huh-7 cell lysate at 1 uM by KiNativ Profiling analysis relative to control; assay type: subcellular
Ribosomal protein S6 kinase beta-2 (Homo sapiens), sequence (Q9UBS0 whole entry): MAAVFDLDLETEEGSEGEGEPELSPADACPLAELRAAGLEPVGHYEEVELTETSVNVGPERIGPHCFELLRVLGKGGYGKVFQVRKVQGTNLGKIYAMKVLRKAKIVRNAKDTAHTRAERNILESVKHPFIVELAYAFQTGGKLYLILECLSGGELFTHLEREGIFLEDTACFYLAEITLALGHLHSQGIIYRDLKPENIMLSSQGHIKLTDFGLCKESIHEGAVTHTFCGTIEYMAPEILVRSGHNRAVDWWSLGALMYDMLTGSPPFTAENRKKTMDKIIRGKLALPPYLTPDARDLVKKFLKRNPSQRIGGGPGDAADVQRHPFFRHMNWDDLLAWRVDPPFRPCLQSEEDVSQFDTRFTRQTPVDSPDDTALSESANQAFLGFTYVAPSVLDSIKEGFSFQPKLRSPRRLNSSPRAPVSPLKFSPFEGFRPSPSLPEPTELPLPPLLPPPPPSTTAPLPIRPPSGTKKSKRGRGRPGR

AMPK alpha1/alpha2 (Homo sapiens), sequence (P54646 whole entry, looked up): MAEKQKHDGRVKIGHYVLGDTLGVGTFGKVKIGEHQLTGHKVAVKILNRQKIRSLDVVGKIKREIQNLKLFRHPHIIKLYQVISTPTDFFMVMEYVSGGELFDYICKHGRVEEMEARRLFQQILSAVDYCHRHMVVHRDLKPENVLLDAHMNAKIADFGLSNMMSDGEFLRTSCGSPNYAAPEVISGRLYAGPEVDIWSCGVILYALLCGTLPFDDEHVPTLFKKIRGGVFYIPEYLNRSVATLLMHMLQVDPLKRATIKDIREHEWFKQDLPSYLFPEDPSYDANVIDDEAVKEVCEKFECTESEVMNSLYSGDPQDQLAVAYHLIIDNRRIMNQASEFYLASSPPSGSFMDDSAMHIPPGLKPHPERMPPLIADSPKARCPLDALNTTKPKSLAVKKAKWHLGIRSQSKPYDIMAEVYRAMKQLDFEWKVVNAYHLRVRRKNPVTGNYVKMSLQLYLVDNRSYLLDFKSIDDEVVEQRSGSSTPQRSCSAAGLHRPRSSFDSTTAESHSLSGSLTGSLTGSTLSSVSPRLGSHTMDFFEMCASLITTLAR
AMPK alpha1/alpha2 (Homo sapiens), sequence (Q13131 whole entry, looked up): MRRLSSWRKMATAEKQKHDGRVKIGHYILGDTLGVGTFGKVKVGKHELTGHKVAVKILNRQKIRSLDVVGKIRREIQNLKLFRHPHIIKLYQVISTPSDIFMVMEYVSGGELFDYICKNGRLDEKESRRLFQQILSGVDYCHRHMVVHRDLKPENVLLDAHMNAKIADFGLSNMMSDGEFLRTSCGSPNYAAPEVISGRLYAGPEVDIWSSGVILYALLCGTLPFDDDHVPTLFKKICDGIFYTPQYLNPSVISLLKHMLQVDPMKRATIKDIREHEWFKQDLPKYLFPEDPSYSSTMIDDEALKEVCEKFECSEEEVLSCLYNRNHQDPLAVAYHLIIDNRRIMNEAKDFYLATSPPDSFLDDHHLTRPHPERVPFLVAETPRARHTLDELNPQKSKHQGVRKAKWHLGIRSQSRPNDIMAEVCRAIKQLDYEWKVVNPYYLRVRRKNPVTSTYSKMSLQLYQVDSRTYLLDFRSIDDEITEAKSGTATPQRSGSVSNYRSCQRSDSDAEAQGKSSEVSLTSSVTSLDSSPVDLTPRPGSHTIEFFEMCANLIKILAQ
Dual specificity protein kinase CLK4 (Homo sapiens), sequence (Q9HAZ1 whole entry, looked up): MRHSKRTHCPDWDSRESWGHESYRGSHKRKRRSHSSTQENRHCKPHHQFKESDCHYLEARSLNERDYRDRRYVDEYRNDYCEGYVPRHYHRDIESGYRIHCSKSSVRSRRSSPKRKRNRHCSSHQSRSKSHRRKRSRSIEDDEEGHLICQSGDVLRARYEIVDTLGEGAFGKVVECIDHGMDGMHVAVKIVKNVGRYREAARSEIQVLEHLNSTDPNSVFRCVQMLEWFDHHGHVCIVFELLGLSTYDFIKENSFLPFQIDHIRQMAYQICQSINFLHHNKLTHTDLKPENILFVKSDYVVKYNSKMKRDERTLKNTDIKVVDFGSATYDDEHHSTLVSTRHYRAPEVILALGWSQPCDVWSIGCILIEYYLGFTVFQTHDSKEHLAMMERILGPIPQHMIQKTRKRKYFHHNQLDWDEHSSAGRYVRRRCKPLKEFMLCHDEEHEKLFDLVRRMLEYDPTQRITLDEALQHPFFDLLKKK
Calcium/calmodulin-dependent protein kinase type IV (Homo sapiens), sequence (Q16566 whole entry): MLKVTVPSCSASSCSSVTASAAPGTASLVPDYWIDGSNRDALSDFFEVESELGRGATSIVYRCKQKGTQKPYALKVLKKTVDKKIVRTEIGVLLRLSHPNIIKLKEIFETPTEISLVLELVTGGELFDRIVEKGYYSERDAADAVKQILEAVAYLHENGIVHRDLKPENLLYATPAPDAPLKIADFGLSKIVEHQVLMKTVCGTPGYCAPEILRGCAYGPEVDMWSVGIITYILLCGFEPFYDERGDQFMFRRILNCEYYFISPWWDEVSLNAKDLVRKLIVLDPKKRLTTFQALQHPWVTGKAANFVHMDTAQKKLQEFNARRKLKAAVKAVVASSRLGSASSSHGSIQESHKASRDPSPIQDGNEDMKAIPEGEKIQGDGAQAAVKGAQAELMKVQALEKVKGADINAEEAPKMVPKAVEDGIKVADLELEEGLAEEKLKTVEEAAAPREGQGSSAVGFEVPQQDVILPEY
Serine/threonine-protein kinase 38 (Homo sapiens), sequence (Q15208 2-465 limits assumed): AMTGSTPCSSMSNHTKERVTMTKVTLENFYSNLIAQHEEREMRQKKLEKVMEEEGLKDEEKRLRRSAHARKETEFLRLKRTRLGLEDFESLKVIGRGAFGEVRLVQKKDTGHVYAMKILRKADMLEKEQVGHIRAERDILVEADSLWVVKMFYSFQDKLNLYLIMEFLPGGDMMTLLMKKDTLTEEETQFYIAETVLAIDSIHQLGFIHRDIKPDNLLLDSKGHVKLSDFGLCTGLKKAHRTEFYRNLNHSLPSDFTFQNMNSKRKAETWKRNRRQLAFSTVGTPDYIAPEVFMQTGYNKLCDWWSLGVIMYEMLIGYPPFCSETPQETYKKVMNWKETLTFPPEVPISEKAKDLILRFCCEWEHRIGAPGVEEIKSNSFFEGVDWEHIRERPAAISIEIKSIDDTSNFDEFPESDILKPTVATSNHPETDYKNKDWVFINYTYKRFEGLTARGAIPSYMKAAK
Serine/threonine-protein kinase pim-1 (Homo sapiens), sequence (P11309 whole entry, looked up): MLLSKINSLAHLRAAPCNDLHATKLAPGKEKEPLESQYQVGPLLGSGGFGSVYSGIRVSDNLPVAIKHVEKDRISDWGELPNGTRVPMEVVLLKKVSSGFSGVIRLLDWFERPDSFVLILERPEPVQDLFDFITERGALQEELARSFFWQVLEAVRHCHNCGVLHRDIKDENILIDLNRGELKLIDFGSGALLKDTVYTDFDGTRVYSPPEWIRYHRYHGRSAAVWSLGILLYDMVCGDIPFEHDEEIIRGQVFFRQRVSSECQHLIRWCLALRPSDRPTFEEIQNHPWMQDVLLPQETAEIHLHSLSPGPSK
Mitogen-activated protein kinase kinase kinase 13 (Homo sapiens), sequence (O43283 whole entry): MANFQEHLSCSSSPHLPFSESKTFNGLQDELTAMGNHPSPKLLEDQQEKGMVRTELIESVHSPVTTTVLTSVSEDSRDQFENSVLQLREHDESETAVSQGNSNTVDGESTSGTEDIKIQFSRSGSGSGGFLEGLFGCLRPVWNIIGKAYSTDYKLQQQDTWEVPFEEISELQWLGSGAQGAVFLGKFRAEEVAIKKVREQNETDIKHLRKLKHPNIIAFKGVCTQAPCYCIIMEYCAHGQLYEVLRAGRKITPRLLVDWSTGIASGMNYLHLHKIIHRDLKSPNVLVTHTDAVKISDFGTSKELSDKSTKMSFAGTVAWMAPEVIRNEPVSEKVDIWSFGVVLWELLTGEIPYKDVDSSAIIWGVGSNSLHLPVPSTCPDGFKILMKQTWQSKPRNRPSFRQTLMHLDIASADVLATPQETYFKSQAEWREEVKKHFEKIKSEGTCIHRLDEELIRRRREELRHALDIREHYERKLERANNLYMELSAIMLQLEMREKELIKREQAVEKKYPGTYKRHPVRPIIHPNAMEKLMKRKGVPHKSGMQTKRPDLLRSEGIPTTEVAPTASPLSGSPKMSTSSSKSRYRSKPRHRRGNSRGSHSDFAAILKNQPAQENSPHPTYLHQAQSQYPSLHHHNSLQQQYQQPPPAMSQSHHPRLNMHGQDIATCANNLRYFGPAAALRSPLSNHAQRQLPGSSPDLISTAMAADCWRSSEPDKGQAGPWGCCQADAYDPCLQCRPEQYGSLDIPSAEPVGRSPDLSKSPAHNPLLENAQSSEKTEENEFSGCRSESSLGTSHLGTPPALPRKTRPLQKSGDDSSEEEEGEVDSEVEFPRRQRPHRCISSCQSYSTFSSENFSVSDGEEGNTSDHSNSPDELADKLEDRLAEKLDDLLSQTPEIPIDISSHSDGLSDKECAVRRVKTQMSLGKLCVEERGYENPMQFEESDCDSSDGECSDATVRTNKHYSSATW
Cyclin-dependent kinase-like 2 (Homo sapiens), sequence (Q92772 whole entry): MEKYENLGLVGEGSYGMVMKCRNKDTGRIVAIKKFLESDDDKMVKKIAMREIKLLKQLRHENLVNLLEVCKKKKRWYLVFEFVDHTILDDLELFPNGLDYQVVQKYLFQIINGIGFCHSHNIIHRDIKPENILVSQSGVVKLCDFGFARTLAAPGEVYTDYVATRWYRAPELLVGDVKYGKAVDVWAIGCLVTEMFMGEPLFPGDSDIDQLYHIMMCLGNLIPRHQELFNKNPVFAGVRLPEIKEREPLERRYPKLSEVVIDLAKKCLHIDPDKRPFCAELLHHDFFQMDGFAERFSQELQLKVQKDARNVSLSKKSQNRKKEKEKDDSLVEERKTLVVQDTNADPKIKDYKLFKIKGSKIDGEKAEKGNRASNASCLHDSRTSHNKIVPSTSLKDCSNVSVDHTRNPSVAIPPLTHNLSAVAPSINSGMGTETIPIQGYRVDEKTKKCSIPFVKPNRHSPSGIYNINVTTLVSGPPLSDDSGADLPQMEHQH

Work on `CCN1CCN(Cc2ccc(NC(=O)c3ccc(C)c(/C=C/c4cnc5[nH]ccc5c4OC)c3)cc2C(F)(F)F)CC1` yielded a residual activity [1] of 100%, an inhibition [2] of 25.3% and an IC50 (BaF3) of 4.02 µM. It also gave an inhibition [3] of 82% and a residual activity [4] of 4.2%.

`CCN1CCN(Cc2ccc(NC(=O)c3ccc(C)c(Oc4ccnc5[nH]ccc45)c3)cc2C(F)(F)F)CC1` was tested, and the inhibition [5] was 44.3%, the inhibition [6] was “inactive” and the inhibition [7] was -2.6%. For the same compound, the inhibition [8] was 29.8% and the inhibition [9] was “inactive”.

`CNc1cc(Oc2cc(C(=O)Nc3cc(N4CCN(C)CC4)cc(C(F)(F)F)c3)ccc2C)ncn1` was tested, and the inhibition [10] was 2.5% and the inhibition [11] was 2.8%.
